Series [1] in a line: Solubility in water-insoluble recrystallization solvents (statement). The class given is physicochemical. The settings on record: water-insoluble solvent other than alicyclic or aliphatic hydrocarbons; in words.
Series [2] in a line: Solubility in cyclohexane (Table 2). The class given is physicochemical. The note with it: for Solubility: cyclohexane.

The structures appear in SMILES notation. A value given as a limit tells only on which side of the number the result lay.

For the compound `Cc1cc(CCC(=O)OCC(C)(C)C2OCC3(CO2)COC(C(C)(C)COC(=O)CCc2cc(C)c(O)c(C(C)(C)C)c2)OC3)cc(C(C)(C)C)c1O` (stereo not drawn) [α.eta.-Crystal, 3,9-bis{2-[3-(3-tert-butyl-4-hydroxy-5-methylphenyl)propionyloxy]-1,1-dimethylethyl}-2,4,8,10-tetraoxaspiro[5.5]undecane], in series [1], the “solubility of the αβ-crystals in water-insoluble solvent” value was “so high that the δ-crystals containing substantially no αβ-crystals can be obtained even at room temperature”. The Solubility in series [2] (20 °C) was 0.2 g/100 g cyclohexane; in series [2] (30 °C), 0.5 g/100 g cyclohexane; in series [2] (40 °C) it was 1.4 g/100 g cyclohexane; in series [2] (50 °C), 4.1 g/100 g cyclohexane; in series [2] (55 °C) it was 8.5 g/100 g cyclohexane; in series [2] (60 °C), greater than 60 g/100 g cyclohexane.

Regarding `Cc1cc(CCC(=O)OCC(C)(C)C2OCC3(CO2)COC(C(C)(C)COC(=O)CCc2cc(C)c(O)c(C(C)(C)C)c2)OC3)cc(C(C)(C)C)c1O` (centres unmarked) [δ-Crystal, 3,9-bis{2-[3-(3-tert-butyl-4-hydroxy-5-methylphenyl)propionyloxy]-1,1-dimethylethyl}-2,4,8,10-tetraoxaspiro[5.5]undecane], the Solubility stood at 0.06 g/100 g cyclohexane in series [2] (20 °C); 0.1 g/100 g cyclohexane in series [2] (30 °C); 0.2 g/100 g cyclohexane in series [2] (40 °C); 0.5 g/100 g cyclohexane in series [2] (50 °C); 1.1 g/100 g cyclohexane in series [2] (55 °C); 2.1 g/100 g cyclohexane in series [2] (60 °C). Also, the “solubility compared with αβ-crystals” value in series [2] (in words, refers to Table 2) is “lower solubility than that of the αβ-crystals”.

The values are drawn from patent publication US4845244A, “Production of hydroxyphenylpropionic acid ester having a novel crystalline structure” (Sumitomo Chemical Company, Limited, priority 1985, dated 1989).
